Active and inactive are the calls of the source. The calls are words filed in the database; no cut-off is given here.
Legend:
[1] = tested on: PC-3; experiment: Antitumor activity against human PC-3 cells assessed as inhibition of cell proliferation incubated for 72 hrs by MTT assay; type: functional, cell-based; settings: PC-3, 72 h
[2] = AUC (0 to t) in ICR mouse at 25 mg/kg, IG measured at 0.083 to 24 hrs by LC-MS analysis; type: ADME, organism-based; design: dose 25 mg/kg, time upper 24 hrs, time lower 0.083 hrs, route ig; settings: in vivo, po
[3] = tested on: PC-3; experiment: Induction of cell cycle arrest in human PC-3 cells assessed as increase in G2/M phase cell ratio at 10 uM incubated for 24 hrs by PI/RNase A staining based flow cytometric analysis (reference value: 16.07%); type: functional
[4] = tested on: PC-3; experiment: Induction of cell cycle arrest in human PC-3 cells assessed as increase in G2/M phase cell ratio at 5 uM incubated for 24 hrs by PI/RNase A staining based flow cytometric analysis (reference value: 16.07%); type: functional
[5] = tested on: PC-3; experiment: Induction of apoptosis in human PC-3 cells assessed as necrotic cells at 5 uM incubated for 72 hrs by Annexin V-FITC/PI staining based flow cytometric analysis (reference value: 5.01%); type: functional
[6] = tested on: PC-3; experiment: Induction of cell cycle arrest in human PC-3 cells assessed as increase in G2/M phase cell ratio at 2.5 uM incubated for 24 hrs by PI/RNase A staining based flow cytometric analysis (reference value: 16.07%); type: functional
[7] = MRT (0 to t) in ICR mouse at 5 mg/kg, iv measured at 0.083 to 24 hrs by LC-MS analysis; type: ADME, organism-based; settings: in vivo, time 0.083-24 hrs
[8] = Toxicity in BALB/C nude mouse xenografted with human PC-3 cells assessed as heart damage at 25 to 50 mg/kg, IG administered for 25 days by H&E staining based analysis; type: organism-based; settings: in vivo, po, 600 h, dose 25-50 mg/kg, time 25 day
[9] = Tmax in ICR mouse at 5 mg/kg, iv measured at 0.083 to 24 hrs by LC-MS analysis; type: ADME, organism-based; settings: in vivo, time 0.083-24 hrs
[10] = target: T1, Lysine-specific demethylase 5B (Homo sapiens, UniProt Q9UGL1); experiment: Inhibition of KDM5B (unknown origin)
[11] = tested on: PC-3; experiment: Induction of apoptosis in human PC-3 cells assessed as necrotic cells at 2.5 uM incubated for 72 hrs by Annexin V-FITC/PI staining based flow cytometric analysis (reference value: 5.01%); type: functional
[12] = Apparent volume of distribution in ICR mouse at 5 mg/kg, iv measured at 0.083 to 24 hrs by LC-MS analysis; type: ADME, organism-based; settings: in vivo, time 0.083-24 hrs
[13] = tested on: PC-3; experiment: Inhibition of PI3K/AKT pathway in human PC-3 cells assessed as decrease in AKT phosphorylation at Ser473 residue at 20 uM by Western blot analysis relative to control; type: cell-based
[14] = Toxicity in BALB/C nude mouse xenografted with human PC-3 cells assessed as lung damage at 25 to 50 mg/kg, IG administered for 25 days by H&E staining based analysis; type: organism-based; settings: in vivo, po, 600 h, dose 25-50 mg/kg, time 25 day
[15] = Cmax in ICR mouse at 5 mg/kg, iv measured at 0.083 to 24 hrs by LC-MS analysis; type: ADME, organism-based; design: time upper 24 hrs, time lower 0.083 hrs, dose 5 mg/kg, route iv; settings: in vivo
[16] = tested on: PC-3; experiment: Antitumor activity against human PC-3 cells xenografted in BALB/C nude mice assessed as decrease in tumor volume at 50 mg/kg, IG measured after 13 days; type: functional, organism-based; settings: time 13.0 day
[17] = MRT (0 to t) in ICR mouse at 25 mg/kg, IG measured at 0.083 to 24 hrs by LC-MS analysis; type: ADME, organism-based; settings: in vivo, po, time 0.083-24 hrs
[18] = tested on: PC-3; experiment: Induction of apoptosis in human PC-3 cells assessed as necrotic cells at 10 uM incubated for 72 hrs by Annexin V-FITC/PI staining based flow cytometric analysis (reference value: 5.01%); type: functional
[19] = Toxicity in BALB/C nude mouse xenografted with human PC-3 cells assessed as reduction in prostate gland cells at 25 mg/kg, IG administered for 25 days by H&E staining based analysis; type: organism-based; settings: in vivo, po, 600 h, time 25 day
[20] = tested on: PC-3; experiment: Induction of apoptosis in human PC-3 cells assessed as late apoptotic cells at 5 uM incubated for 72 hrs by Annexin V-FITC/PI staining based flow cytometric analysis (reference value: 1.05%); type: functional
[21] = Toxicity in BALB/C nude mouse xenografted with human PC-3 cells assessed as kidney damage at 25 to 50 mg/kg, IG administered for 25 days by H&E staining based analysis; type: organism-based; settings: in vivo, po, 600 h, dose 25-50 mg/kg, time 25 day
[22] = tested on: MGC-803; experiment: Antitumor activity against human MGC-803 cells assessed as inhibition of cell proliferation incubated for 72 hrs by MTT assay; type: functional, cell-based; settings: MGC-803, 72 h
[23] = tested on: PC-3; experiment: Inhibition of cell migration in human PC-3 cells at 5 to 10 uM by wound scratch assay; type: functional, cell-based; settings: dose 5-10 µM, time <= 24.0 hrs, TDE = time-dependent effect
[24] = tested on: PC-3; experiment: Induction of apoptosis in human PC-3 cells assessed as early apoptotic cells at 2.5 uM incubated for 72 hrs by Annexin V-FITC/PI staining based flow cytometric analysis (reference value: 3.01%); type: functional
[25] = tested on: PC-3; experiment: Inhibition of PI3K/AKT pathway in human PC-3 cells assessed as decrease in P110alpha level at 10 uM by Western blot analysis; type: cell-based
[26] = tested on: PC-3; experiment: Inhibition of PI3K/AKT pathway in human PC-3 cells assessed as decrease in AKT phosphorylation at Thr308 residue at 2.5 to 10 uM by Western blot analysis; type: cell-based; settings: dose 2.5-10 µM
[27] = Cmax in ICR mouse at 25 mg/kg, IG measured at 0.083 to 24 hrs by LC-MS analysis; type: ADME, organism-based; design: time lower 0.083 hrs, dose 25 mg/kg, time upper 24 hrs, route ig; settings: in vivo, po
[28] = tested on: PC-3; experiment: Antitumor activity against human PC-3 cells xenografted in BALB/C nude mice assessed as decrease in tumor volume at 25 to 50 mg/kg, IG administered for 25 days; type: functional, organism-based; settings: dose 25-50 mg/kg, time 25.0 day
[29] = tested on: PC-3; experiment: Inhibition of PI3K/AKT pathway in human PC-3 cells assessed as decrease in AKT phosphorylation at Thr308 residue at 20 uM by Western blot analysis relative to control; type: cell-based
[30] = Acute toxicity in Kunming mouse assessed as effect on liver at 2 g/Kg, IG measured after 2 weeks by H&E staining based analysis; type: tissue-based; settings: in vivo, po, 2000 mg/kg, 336 h
[31] = Half-life in ICR mouse at 5 mg/kg, iv measured at 0.083 to 24 hrs by LC-MS analysis; type: ADME, organism-based; settings: in vivo, time 0.083-24 hrs
[32] = target: T1, Lysine-specific demethylase 5B; experiment: Inhibition of KDM5B in human PC-3 cells assessed as H3K4me3 accumulation incubated for 72 hrs by Western blot analysis; type: cell-based
[33] = tested on: PC-3; experiment: Inhibition of PI3K/AKT pathway in human PC-3 cells assessed as decrease in P110alpha level at 2.5 to 5 uM by Western blot analysis; type: cell-based; settings: dose 2.5-5 µM
[34] = tested on: PC-3; experiment: Inhibition of PI3K/AKT pathway in human PC-3 cells assessed as decrease in P85 level at 2.5 to 5 uM by Western blot analysis; type: cell-based; settings: dose 2.5-5 µM
[35] = Acute toxicity in Kunming mouse assessed as effect on lung at 2 g/Kg, IG measured after 2 weeks by H&E staining based analysis; type: tissue-based; settings: in vivo, po, 2000 mg/kg, 336 h
[36] = Cytotoxicity against human WPMY-1 cells incubated for 72 hrs by MTT assay; type: toxicity, cell-based

T1 sequence (Q9UGL1 whole entry): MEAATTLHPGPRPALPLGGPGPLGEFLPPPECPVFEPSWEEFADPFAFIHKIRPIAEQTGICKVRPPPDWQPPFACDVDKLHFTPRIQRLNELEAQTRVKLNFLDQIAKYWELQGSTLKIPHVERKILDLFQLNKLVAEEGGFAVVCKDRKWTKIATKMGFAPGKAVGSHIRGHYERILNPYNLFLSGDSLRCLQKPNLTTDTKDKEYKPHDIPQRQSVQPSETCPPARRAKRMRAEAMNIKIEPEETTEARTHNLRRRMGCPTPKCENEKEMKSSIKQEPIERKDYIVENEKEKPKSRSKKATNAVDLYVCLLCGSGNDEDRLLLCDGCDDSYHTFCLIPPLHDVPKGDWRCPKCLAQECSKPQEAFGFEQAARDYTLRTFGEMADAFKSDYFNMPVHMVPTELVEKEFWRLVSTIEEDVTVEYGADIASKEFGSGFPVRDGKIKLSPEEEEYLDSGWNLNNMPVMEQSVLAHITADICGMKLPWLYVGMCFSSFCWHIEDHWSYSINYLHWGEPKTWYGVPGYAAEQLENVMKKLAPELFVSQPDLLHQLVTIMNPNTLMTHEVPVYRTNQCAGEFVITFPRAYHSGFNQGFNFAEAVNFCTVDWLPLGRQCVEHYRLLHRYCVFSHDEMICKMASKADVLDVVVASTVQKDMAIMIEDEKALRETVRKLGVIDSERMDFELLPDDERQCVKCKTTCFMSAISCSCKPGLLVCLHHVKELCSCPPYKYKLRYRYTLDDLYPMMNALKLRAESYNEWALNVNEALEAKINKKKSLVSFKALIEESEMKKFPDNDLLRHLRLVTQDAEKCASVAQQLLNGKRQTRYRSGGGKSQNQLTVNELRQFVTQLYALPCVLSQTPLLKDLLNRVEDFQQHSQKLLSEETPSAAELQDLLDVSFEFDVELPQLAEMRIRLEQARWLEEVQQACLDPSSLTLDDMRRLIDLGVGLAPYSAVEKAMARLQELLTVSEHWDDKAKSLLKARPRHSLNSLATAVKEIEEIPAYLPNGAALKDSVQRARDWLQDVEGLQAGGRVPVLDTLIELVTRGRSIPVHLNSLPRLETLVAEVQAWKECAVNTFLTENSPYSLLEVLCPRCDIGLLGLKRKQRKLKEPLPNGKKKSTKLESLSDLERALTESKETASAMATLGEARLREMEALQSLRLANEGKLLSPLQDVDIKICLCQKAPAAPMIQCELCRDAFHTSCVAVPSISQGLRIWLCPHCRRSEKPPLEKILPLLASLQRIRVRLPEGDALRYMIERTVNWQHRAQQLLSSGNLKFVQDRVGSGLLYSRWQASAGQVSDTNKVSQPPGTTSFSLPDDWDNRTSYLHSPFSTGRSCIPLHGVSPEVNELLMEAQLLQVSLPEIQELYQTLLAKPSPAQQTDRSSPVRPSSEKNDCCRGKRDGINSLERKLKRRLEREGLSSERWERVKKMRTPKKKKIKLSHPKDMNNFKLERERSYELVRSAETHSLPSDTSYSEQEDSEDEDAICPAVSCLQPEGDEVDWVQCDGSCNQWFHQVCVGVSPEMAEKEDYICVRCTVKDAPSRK

**Q.** Which IC50 [1] does the source give for CN1CCN(CCNC(=O)c2cc(-c3ccc4ccccc4c3)nc3c2cnn3-c2ccccc2)CC1 here?
**A.** 2.18 µM

**Q.** And the AUCt [2]?
**A.** 3024.33 ng·h/mL

**Q.** What about the Activity [3] of the same compound?
**A.** 75.33%

**Q.** And the Activity [4]?
**A.** 27.47%

**Q.** What about the Activity [5] of the same compound?
**A.** 18.77%

**Q.** And the Activity [6]?
**A.** 18.17%

**Q.** And the “MRT(t)” value [7]?
**A.** 10.29 h

**Q.** What about the Activity [8] of the same compound?
**A.** Non-Toxic

**Q.** And the Tmax [9]?
**A.** 4.98 min

**Q.** And the IC50 [10]?
**A.** 0.025 µM

**Q.** What about the Activity [11] of the same compound?
**A.** 18.36%

**Q.** And the Vz [12]?
**A.** 19.51 L/kg

**Q.** What about the inhibition [13] of the same compound?
**A.** 40%

**Q.** What about the Activity [14] of the same compound?
**A.** Non-Toxic

**Q.** What about the Cmax [15] of the same compound?
**A.** 551.67 ng/mL

**Q.** What about the Activity [16] of the same compound?
**A.** Active

**Q.** And the MRT last [17]?
**A.** 6.9 h

**Q.** And the Activity [18]?
**A.** 23.96%

**Q.** And the Activity [19]?
**A.** Non-Toxic

**Q.** What about the Activity [20] of the same compound?
**A.** 7.54%

**Q.** What about the Activity [21] of the same compound?
**A.** Non-Toxic

**Q.** What about the IC50 [22] of the same compound?
**A.** 6.09 µM

**Q.** And the inhibition [23]?
**A.** Tde

**Q.** And the Activity [24]?
**A.** 0.7%

**Q.** And the inhibition [25]?
**A.** Active

**Q.** And the inhibition [26]?
**A.** inactive

**Q.** And the Cmax [27]?
**A.** 412 ng/mL

**Q.** What about the Activity [28] of the same compound?
**A.** Active

**Q.** What about the inhibition [29] of the same compound?
**A.** 60%

**Q.** And the Activity [30]?
**A.** Non-Toxic

**Q.** And the t1/2 [31]?
**A.** 2.95 h

**Q.** What about the inhibition [32] of the same compound?
**A.** Dose-Dependent Effect

**Q.** What about the inhibition [33] of the same compound?
**A.** inactive

**Q.** What about the inhibition [34] of the same compound?
**A.** inactive

**Q.** What about the Activity [35] of the same compound?
**A.** Non-Toxic

**Q.** And the IC50 at 72 h [36]?
**A.** 27.9 µM
